The text below walks through data of US4370323A, “2-Cyanoaziridinyl-(1)-2-substituted-aziridinyl-(1)-methanes” (Boehringer Mannheim GmbH, priority 1976, dated 1983).

Series [1] in a line: Acute toxicity (LD50) in mice. The following applies: mouse, in vivo, ip, single intraperitoneal administration. As for the experimental part: (§1) These values are much higher than the pharmacologically effective dosages (0.5-50 mg/kg body weight).
The subject of another series is DC-Carcino-Sarcoma. The series can be described thus: Cancerostatic effect: DC-Carcino-Sarcoma transplanted in rats. The series is classed as in vivo, female Sprague-Dawley rats. The following applies: for Tumor weight: three days prior to tumor application, day 7, average of 20 animals; for Difference (tumor weight): vs control. How it is done:
(§2) Ready-to-be-transplanted tumors of various kinds were taken from freshly killed rats, comminuted coarsely and pulverized with addition of 8 ml of physiological sodium chloride solution. Female Sprague-Dawley rats weighing 80 to 100 g were used as test animals. The respective tumor cell suspension was applied subfacially to the animals in an amount of 0.5 ml per animal under sterile conditions in the neck area. On the seventh day after the transplantation the animals were killed, the tumors taken out and weighed. The substances according to the instant invention were in each case applied orally three days prior to the tumor application by means of a throat tube (in 10 ml 1% hydrous methylhydroxylethyl cellulose solution per kg of body weight).

For the next series, the system named is Walker-Carcinoma 256. The series can be described thus: Cancerostatic effect: Walker-Carcinoma 256 transplanted in rats. To be noted: for Tumor weight: three days prior to tumor application, day 7, average of 20 animals; for Difference (tumor weight): vs control. The series is classed as in vivo, female Sprague-Dawley rats. How it is done:
as §2

The next series has as its system Candida albicans. The series can be described thus: In vitro fungistatic effect. The series is classed as cell-based.
Series [2] in a line: Acute toxicity (LD50) in rats. The following applies: rat, in vivo. How it is done: as §1
Another series concerns leucocyte number. The series can be described thus: Alteration of the leucocyte number in rats. The series is classed as in vivo, female Sprague-Dawley rats. To be noted: oral, fourth day, ten rats. How it is done:
(a) Alteration of the leucocyte number
The active substance was dissolved in each case in 10 ml of a 1% methyl-hydroxyethyl cellulose solution per kg of body weight and orally applied by means of a neck tube to ten fasting female Sprague-Dawley rats in each case. On the fourth day, blood was taken retroorbitally and the leucocyte number was determined by means of a coult counter.

For another series, the system named is Candida albicans-219. As to the kind of experiment: Resistance increase in case of Candida albicans infection in mice. The series is classed as in vivo, Candida albicans; female NMRI mice. The following applies: 50 mg per kg oral, one hour after i.v. infection, after six days. How it is done:
Female, adult NMRI mice weighing 25-30 g were infected with Candida albicans-219. A suspension of approximately 300,000 germs in 0.2 ml physiological sodium chloride per animal was given intravenously. One hour later, 50 mg of the compound of Example 1, per kg body weight, were applied orally by way of neck tube, dissolved in 10 ml 0.1% methyl-hydroxyethyl cellulose. The control group received the same solution without active material. After six days, 18 of the 30 animals of the control group were dead, but only 3 of the 30 animals of the test group, which corresponds to a survival rate of 90% and makes clearly evident the resistance-increasing effect.

SMILES strings stand for the structures.

Broadly, the LD50 is the dose expected to kill half of the subjects tested. Turning to `CC(C)(N1CC1C#N)N1CC1C(N)=O` (centres unmarked) [Example 1, 2-[2-Cyanoaziridinyl-(1)]-2-[2-carbamoylaziridinyl-(1)]-propane], the LD50 was determined as 2270 mg/kg in series [1]; 2550 mg/kg in series [2] (ip, single intraperitoneal administration, read-out: acute toxicity (LD50)); 3100 mg/kg in series [2] (oral administration, read-out: LD50). Moreover, the Tumor weight with DC-Carcino-Sarcoma (150 mg/kg oral) is on record as 5.9 g; in the series on DC-Carcino-Sarcoma (300 mg/kg oral), 9.8 g; in the series with Walker-Carcinoma 256 (5.0 mg/kg oral), 11.8 g; in the series with Walker-Carcinoma 256 (50.0 mg/kg oral), 12.1 g; with Walker-Carcinoma 256 (100.0 mg/kg oral) it was 15.6 g. Also, the “Difference (tumor weight)” value was -67.0% with DC-Carcino-Sarcoma (150 mg/kg oral), -45.0% with DC-Carcino-Sarcoma (300 mg/kg oral), -27.1% in the series on Walker-Carcinoma 256 (5.0 mg/kg oral) and -25.4% in the series with Walker-Carcinoma 256 (50.0 mg/kg oral). The fungistatic effect result with Candida albicans was “no fungistatic effect”. The “proportion of the average leucocyte number of the test group to that of the control group” value in the series with leucocyte number (50 mg per kg body weight) is on record as 1,70; in the series with leucocyte number (200 mg per kg body weight) it was 1,55. The survival rate in the series with Candida albicans-219 was 90%. Moreover, the dead animals with Candida albicans-219 (control 18 of 30) is listed as 3 of the 30 animals.
